Here are results for 1 substance from US6441036B1 (priority 1998, dated 2002).

Data set [1] can be described thus: 28 days toxicity study in dogs (GLP). In kind it is in vivo. The text has this: A 28 days toxicity study in dogs according to GLP guide-lines has been performed by Corning Hazleton (Europe), England. […] Some lipid related parameters were lowered in the animals given high dosages. This is consistent with the pharmacological activity of TTA.
Data set [2] in a line: Body weight gain, liver and adipose tissue weight in young obese Zucker rats (Example 9). The class given is in vivo, obese Zucker (fa/fa) rats. The following applies: 5 week-old male rats, TTA 300/kg/day in 0.5% CMC, 11 days; means ± SD. Here is the method:
The obese Zucker (fa/fa) rats used in this study were bred at the U 465 INSERM animal facility from pairs originally provided by the Harriet G. Bird Laboratory (Stow, Mass., USA). Unless otherwise stated, the animals were maintained under a constant light-dark cycle (light from 7:00 a.m. to 7:00 p.m.) at 21±1° C. and were given free access to food and water. Three rats were housed per cage. Weight gains were recorded daily.
5 week-old male obese Zucker (fa/fa) rats fed with TTA, 300/kg/day suspended in 0.5% CMC. Control animals received CMC only. Following 11 days of treatment, rats were killed by cervical dislocation, liver and epididymal adipose tissue pads were dissected out and weighed. Data are means±SD of 6 animals in the control- and 6 animals in the experimental group.

Data set [3] can be described thus: Body weight of normal rats after 12 weeks (Example 6). In kind it is in vivo. The following applies: male Wistar rats, oral, 12 weeks of treatment. The method, then: 2 groups of 6 male Wistar Rats were randomly selected, and studied for weight development over a period of 12 week. The body weight of each Wistar rat was measured at the start of the experiment. All animals in both groups received individually the same amount of food (nutrition) during the experimental period of 12 weeks. All animals in one of the groups were orally administrated with the medicament comprising TTA. The other group was the control group (CMC). After the 12 week period the body weight of rats were measured again.

With Tetradecylthioacetic acid [TTA], the Lipid related parameters entry in data set [1] (animals given high dosages) is listed as “lowered”. In addition, in data set [1] (dose level of 500 mg/kg/day), the Body weight entry is reported as “body weight loss”. Moreover, the Evidence of toxicity result in data set [1] (dose levels of 50 or 500 mg/day/kg, 28 days) is given as “no evidence of toxicity”. In addition, the Tolerability result in data set [1] (oral administration, dose levels up to 500 mg/kg/day, 28 days) was “generally well tolerated”. Besides, the Body weight gain in data set [2] came to 6.23 ± 0.28 g/day; in data set [3] it was 234 ± 20 g.
